Laboratory results taken from ChEMBL document CHEMBL1201862, “PubChem BioAssay data set” (2004).
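1) Cells in 96-well plates. 2) Compound, 48 h, 5 concentrations. 3) Linear interpolation between surrounding doses. 4) Unreached endpoint = highest concentration. GI50 marks 50% less growth.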 The source made the active and inactive calls. Cut-off read from the data, not from the text of the source: active = GI50 up to about 1.1 µM and inactive = higher.

Key:
Test in all cases: NCI anticancer screen, dose series, 48 h
HT-29 = test system: HT-29
OVCAR-8 = test system: OVCAR-8
NCI-H460 = test system: NCI-H460
NCI-H522 = test system: NCI-H522
SF-539 = test system: SF-539
OVCAR-3 = test system: OVCAR-3
SF-268 = test system: SF-268
CAKI-1 = test system: CAKI-1
HOP-92 = test system: HOP-92
SW-620 = test system: SW-620
MCF7 = test system: MCF7
OVCAR-4 = test system: OVCAR-4
K562 = test system: K562
HOP-62 = test system: HOP-62
HCC 2998 = test system: HCC 2998
RPMI-8226 = test system: RPMI-8226
Hs-578T = test system: Hs-578T
SK-MEL-5 = test system: SK-MEL-5
HL-60 = test system: HL-60
NCI/ADR-RES = test system: NCI/ADR-RES
T47D = test system: T47D
UACC-257 = test system: UACC-257
KM12 = test system: KM12
SF-295 = test system: SF-295
M14 = test system: M14
RXF 393 = test system: RXF 393
SK-MEL-28 = test system: SK-MEL-28
SR = test system: SR
Malme-3M = test system: Malme-3M
UACC-62 = test system: UACC-62
CCRF-CEM = test system: CCRF-CEM
SK-MEL-2 = test system: SK-MEL-2
A498 = test system: A498
A549 = test system: A549
EKVX = test system: EKVX
MDA-MB-231 = test system: MDA-MB-231
COLO 205 = test system: COLO 205
PC-3 = test system: PC-3
ACHN = test system: ACHN
HCT-116 = test system: HCT-116
TK-10 = test system: TK-10
MDA-N = test system: MDA-N
786-0 = test system: 786-0
BT-549 = test system: BT-549
MOLT-4 = test system: MOLT-4
NCI-H23 = test system: NCI-H23
OVCAR-5 = test system: OVCAR-5
UO-31 = test system: UO-31
IGROV-1 = test system: IGROV-1
SNB-19 = test system: SNB-19
HCT-15 = test system: HCT-15
U-251 = test system: U-251
NCI-H226 = test system: NCI-H226
SN12C = test system: SN12C
LOX IMVI = test system: LOX IMVI
MDA-MB-435 = test system: MDA-MB-435
SNB-75 = test system: SNB-75
DU-145 = test system: DU-145
SK-OV-3 = test system: SK-OV-3
SNB-78 = test system: SNB-78
DMS-114 = test system: DMS-114

C=CC[C@]1(C2=NC(C)(C)CO2)c2ccccc2-c2ccccc2[C@H]1C(C)=O
GI50 (HT-29): 4.19 µM (inactive)
GI50 (OVCAR-8): 15.7 µM (inactive)
GI50 (NCI-H460): 6.03 µM (inactive)
GI50 (NCI-H522): 2.61 µM (inactive)
GI50 (SF-539): 10.8 µM (inactive)
GI50 (OVCAR-3): 3.13 µM (inactive)
GI50 (SF-268): 10 µM (inactive)
GI50 (CAKI-1): 10.5 µM (inactive)
GI50 (HOP-92): 16.4 µM (inactive)
GI50 (SW-620): 7.55 µM (inactive)
GI50 (MCF7): 4.22 µM (inactive)
GI50 (OVCAR-4): 15.6 µM (inactive)
GI50 (K562): 4.91 µM (inactive)
GI50 (HOP-62): 0.643 µM (active)
GI50 (HCC 2998): 8.11 µM (inactive)
GI50 (RPMI-8226): 7.23 µM (inactive)
GI50 (Hs-578T): 6.5 µM (inactive)
GI50 (SK-MEL-5): 3.54 µM (inactive)
GI50 (HL-60): 3.93 µM (inactive)
GI50 (NCI/ADR-RES): 4 µM (inactive)
GI50 (T47D): 13 µM (inactive)
GI50 (UACC-257): 6.05 µM (inactive)
GI50 (KM12): 5.73 µM (inactive)
GI50 (SF-295): 4.61 µM (inactive)
GI50 (M14): 7.76 µM (inactive)
GI50 (RXF 393): 3.68 µM (inactive)
GI50 (SK-MEL-28): 14.2 µM (inactive)
GI50 (SR): 3.27 µM (inactive)
GI50 (Malme-3M): 5.57 µM (inactive)
GI50 (UACC-62): 5.65 µM (inactive)
GI50 (CCRF-CEM): 7.1 µM (inactive)
GI50 (SK-MEL-2): 3.92 µM (inactive)
GI50 (A498): 7.67 µM (inactive)
GI50 (A549): 9.31 µM (inactive)
GI50 (EKVX): 15.6 µM (inactive)
GI50 (MDA-MB-231): 14.2 µM (inactive)
GI50 (COLO 205): 4.41 µM (inactive)
GI50 (PC-3): 6.41 µM (inactive)
GI50 (ACHN): 12.5 µM (inactive)
GI50 (HCT-116): 5.4 µM (inactive)
GI50 (TK-10): 12.5 µM (inactive)
GI50 (MDA-N): 2.74 µM (inactive)
GI50 (786-0): 9.71 µM (inactive)
GI50 (BT-549): 16 µM (inactive)
GI50 (MOLT-4): 9.27 µM (inactive)
GI50 (NCI-H23): 12.7 µM (inactive)
GI50 (OVCAR-5): 19.9 µM (inactive)
GI50 (UO-31): 14.1 µM (inactive)
GI50 (IGROV-1): 8.38 µM (inactive)
GI50 (SNB-19): 11.6 µM (inactive)
GI50 (HCT-15): 4.82 µM
GI50 (U-251): 8.15 µM (inactive)
GI50 (NCI-H226): 14 µM (inactive)
GI50 (SN12C): 15.6 µM (inactive)
GI50 (LOX IMVI): 10.6 µM (inactive)
GI50 (MDA-MB-435): 3.64 µM (inactive)
GI50 (SNB-75): 10.9 µM (inactive)
GI50 (DU-145): 14.4 µM (inactive)
GI50 (SK-OV-3): 9.31 µM (inactive)

COCC(=O)OC1CCn2c1nc1c2C(=O)C(C)=C(NC(C)=O)C1=N (stereo not given)
GI50 (HT-29): 4.21 µM (inactive)
GI50 (OVCAR-8): 2.56 µM (inactive)
GI50 (NCI-H460): 14 µM (inactive)
GI50 (NCI-H522): 5.01 µM (inactive)
GI50 (SF-539): 2.07 µM (inactive)
GI50 (OVCAR-3): 2.03 µM (inactive)
GI50 (SF-268): 5.19 µM (inactive)
GI50 (CAKI-1): 11.2 µM (inactive)
GI50 (HOP-92): 3.57 µM (inactive)
GI50 (SW-620): 2.49 µM (inactive)
GI50 (MCF7): 1.69 µM (inactive)
GI50 (OVCAR-4): 2.19 µM (inactive)
GI50 (K562): 2.63 µM (inactive)
GI50 (HOP-62): 15.6 µM (inactive)
GI50 (HCC 2998): 13.7 µM (inactive)
GI50 (RPMI-8226): 2.27 µM (inactive)
GI50 (Hs-578T): 4.1 µM (inactive)
GI50 (SK-MEL-5): 2.42 µM (inactive)
GI50 (HL-60): 2.9 µM (inactive)
GI50 (NCI/ADR-RES): 3.99 µM (inactive)
GI50 (T47D): 1.95 µM (inactive)
GI50 (UACC-257): 2.43 µM (inactive)
GI50 (KM12): 14.2 µM (inactive)
GI50 (SF-295): 16.1 µM (inactive)
GI50 (M14): 4.95 µM (inactive)
GI50 (RXF 393): 2.16 µM (inactive)
GI50 (SK-MEL-28): 4.59 µM (inactive)
GI50 (SR): 2.64 µM (inactive)
GI50 (Malme-3M): 1.38 µM (inactive)
GI50 (UACC-62): 1.66 µM (inactive)
GI50 (CCRF-CEM): 2.1 µM (inactive)
GI50 (SK-MEL-2): 2.15 µM (inactive)
GI50 (A498): 18.5 µM (inactive)
GI50 (A549): 21.3 µM (inactive)
GI50 (EKVX): 12.3 µM (inactive)
GI50 (MDA-MB-231): 3.27 µM (inactive)
GI50 (COLO 205): 12.5 µM (inactive)
GI50 (PC-3): 2.58 µM (inactive)
GI50 (ACHN): 7.71 µM (inactive)
GI50 (HCT-116): 3.08 µM (inactive)
GI50 (TK-10): 15.6 µM (inactive)
GI50 (MDA-N): 1.82 µM (inactive)
GI50 (786-0): 3.03 µM (inactive)
GI50 (BT-549): 0.993 µM (active)
GI50 (MOLT-4): 2.34 µM (inactive)
GI50 (NCI-H23): 4.34 µM (inactive)
GI50 (OVCAR-5): 9.91 µM (inactive)
GI50 (UO-31): 11.6 µM (inactive)
GI50 (IGROV-1): 10.8 µM (inactive)
GI50 (SNB-19): 17.9 µM (inactive)
GI50 (HCT-15): 8.13 µM
GI50 (U-251): 5.38 µM (inactive)
GI50 (NCI-H226): 18.5 µM (inactive)
GI50 (SN12C): 3.72 µM (inactive)
GI50 (LOX IMVI): 2.53 µM (inactive)
GI50 (MDA-MB-435): 1.66 µM (inactive)
GI50 (SNB-75): 15.3 µM (inactive)
GI50 (DU-145): 20.4 µM (inactive)
GI50 (SK-OV-3): 17.7 µM (inactive)

COc1cc(Cc2c(C)cc(OC)c3[nH]c4ccccc4c23)cc2c1[nH]c1ccccc12
GI50 (OVCAR-8): 4.57 µM (inactive)
GI50 (SNB-78): 5.79 µM (inactive)
GI50 (OVCAR-3): 5.42 µM (inactive)
GI50 (RPMI-8226): 9.95 µM (inactive)
GI50 (DMS-114): 10.5 µM (inactive)
GI50 (OVCAR-5): 4.99 µM (inactive)
GI50 (SNB-19): 8.85 µM (inactive)
